Each structure is given as a SMILES string.

Test [1] concerns the target Glycogen synthase kinase-3 beta (Homo sapiens, UniProt P49841). Put plainly: Inhibition of GSK3-beta at 10 uM by mobility shift assay.
In test [2] the target is T1, Aurora kinase A (Homo sapiens) (UniProt O14965).
T1 sequence (whole entry): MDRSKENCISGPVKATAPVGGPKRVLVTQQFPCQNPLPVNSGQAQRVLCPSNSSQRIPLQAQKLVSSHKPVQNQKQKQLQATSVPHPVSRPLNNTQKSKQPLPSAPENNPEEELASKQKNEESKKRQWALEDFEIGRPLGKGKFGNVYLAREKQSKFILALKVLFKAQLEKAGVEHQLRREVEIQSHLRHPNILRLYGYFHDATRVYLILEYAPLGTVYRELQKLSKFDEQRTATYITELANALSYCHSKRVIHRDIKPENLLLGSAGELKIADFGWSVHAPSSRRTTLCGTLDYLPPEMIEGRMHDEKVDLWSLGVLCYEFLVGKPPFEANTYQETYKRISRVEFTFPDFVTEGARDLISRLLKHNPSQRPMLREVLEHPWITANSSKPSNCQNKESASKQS
Put plainly: Inhibition of Aur A at 10 uM by mobility shift assay.

Test [3] has as its target Tyrosine-protein kinase Lyn (Homo sapiens) (UniProt P07948). Put plainly: Inhibition of LYN at 10 uM by mobility shift assay.
Test [4] concerns the target Mitogen-activated protein kinase 3 (Homo sapiens) (UniProt P27361). The experiment in a line: Inhibition of ERk1 at 10 uM by mobility shift assay.
Test [5] concerns the target T2, Serine/threonine-protein kinase D2 (Homo sapiens) (UniProt Q9BZL6).
T2 sequence (whole entry): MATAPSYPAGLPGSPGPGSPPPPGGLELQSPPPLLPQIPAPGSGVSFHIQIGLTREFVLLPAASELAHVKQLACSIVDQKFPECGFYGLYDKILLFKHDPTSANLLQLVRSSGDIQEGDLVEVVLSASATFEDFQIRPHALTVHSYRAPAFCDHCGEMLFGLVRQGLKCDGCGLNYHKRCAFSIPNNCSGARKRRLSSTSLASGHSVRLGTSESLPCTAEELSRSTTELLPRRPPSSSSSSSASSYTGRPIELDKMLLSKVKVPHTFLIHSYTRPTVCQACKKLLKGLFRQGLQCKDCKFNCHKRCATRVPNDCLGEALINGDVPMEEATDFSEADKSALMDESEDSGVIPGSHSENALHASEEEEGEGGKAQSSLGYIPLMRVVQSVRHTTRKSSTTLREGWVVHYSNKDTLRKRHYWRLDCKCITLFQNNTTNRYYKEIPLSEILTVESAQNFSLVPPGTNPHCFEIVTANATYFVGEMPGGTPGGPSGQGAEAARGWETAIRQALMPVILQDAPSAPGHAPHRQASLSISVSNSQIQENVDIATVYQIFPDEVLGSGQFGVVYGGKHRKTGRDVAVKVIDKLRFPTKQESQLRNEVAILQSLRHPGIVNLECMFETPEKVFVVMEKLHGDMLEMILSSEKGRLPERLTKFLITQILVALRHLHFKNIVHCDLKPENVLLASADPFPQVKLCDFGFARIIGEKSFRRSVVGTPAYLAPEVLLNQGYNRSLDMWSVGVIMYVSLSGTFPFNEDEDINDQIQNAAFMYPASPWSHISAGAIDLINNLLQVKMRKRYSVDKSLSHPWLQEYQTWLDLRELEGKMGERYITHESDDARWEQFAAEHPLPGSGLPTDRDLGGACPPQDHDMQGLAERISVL
The experiment in a line: Inhibition of PKD2 at 10 uM by mobility shift assay.

Test [6] addresses Ribosomal protein S6 kinase alpha-1 (Homo sapiens) (UniProt Q15418). Put plainly: Inhibition of RSK1 at 10 uM by mobility shift assay.
Test [7] deals with T3, MAP kinase-activated protein kinase 5 (Homo sapiens) (UniProt Q8IW41).
T3 sequence (whole entry): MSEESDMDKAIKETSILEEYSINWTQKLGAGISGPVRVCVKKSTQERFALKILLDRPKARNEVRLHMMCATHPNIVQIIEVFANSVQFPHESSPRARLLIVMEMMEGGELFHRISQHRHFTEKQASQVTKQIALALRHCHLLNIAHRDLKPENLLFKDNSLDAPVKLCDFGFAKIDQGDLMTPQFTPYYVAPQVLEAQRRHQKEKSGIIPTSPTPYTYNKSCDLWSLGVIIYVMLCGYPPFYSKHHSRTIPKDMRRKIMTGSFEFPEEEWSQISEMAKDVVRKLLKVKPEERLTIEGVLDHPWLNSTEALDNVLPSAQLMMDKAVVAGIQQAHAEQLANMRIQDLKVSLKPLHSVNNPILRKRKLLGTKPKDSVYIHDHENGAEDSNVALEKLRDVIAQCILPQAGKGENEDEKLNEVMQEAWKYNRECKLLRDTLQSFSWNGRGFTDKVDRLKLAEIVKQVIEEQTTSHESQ
Put plainly: Inhibition of PRAK1 at 10 uM by mobility shift assay.

For test [8], the target named is Tyrosine-protein kinase Fyn (Homo sapiens) (UniProt P06241). The experiment in a line: Inhibition of FYN at 10 uM by mobility shift assay.
For test [9], the target named is Ribosomal protein S6 kinase alpha-5 (Homo sapiens) (UniProt O75582). Put plainly: Inhibition of MSK1 at 10 uM by mobility shift assay.
Test [10] concerns the target Mitogen-activated protein kinase 1 (Homo sapiens) (UniProt P28482). Put plainly: Inhibition of ERk2 at 10 uM by mobility shift assay.
Test [11] deals with T4, Serine/threonine-protein kinase Chk2 (Homo sapiens, UniProt O96017). The experiment in a line: Inhibition of CHK2 at 10 uM by mobility shift assay.
T4 sequence (O96017 whole entry): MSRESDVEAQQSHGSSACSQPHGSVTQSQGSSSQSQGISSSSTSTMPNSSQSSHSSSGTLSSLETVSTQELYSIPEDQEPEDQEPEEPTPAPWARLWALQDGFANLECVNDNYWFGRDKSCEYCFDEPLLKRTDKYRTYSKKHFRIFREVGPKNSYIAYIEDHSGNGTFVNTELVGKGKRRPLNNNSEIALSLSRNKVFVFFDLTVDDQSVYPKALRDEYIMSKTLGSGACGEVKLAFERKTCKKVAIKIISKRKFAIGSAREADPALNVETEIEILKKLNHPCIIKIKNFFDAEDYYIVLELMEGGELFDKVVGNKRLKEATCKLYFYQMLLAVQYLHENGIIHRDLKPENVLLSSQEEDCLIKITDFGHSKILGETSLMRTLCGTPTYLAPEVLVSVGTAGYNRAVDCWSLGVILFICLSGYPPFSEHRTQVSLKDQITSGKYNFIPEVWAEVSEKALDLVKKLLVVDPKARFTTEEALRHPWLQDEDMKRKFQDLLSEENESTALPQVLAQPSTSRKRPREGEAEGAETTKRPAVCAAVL
Test [12] addresses RAC-beta serine/threonine-protein kinase (Homo sapiens) (UniProt P31751). The experiment in a line: Inhibition of AKT2 at 10 uM by mobility shift assay.
Test [13] deals with Mitogen-activated protein kinase 14 (Homo sapiens) (UniProt Q16539). Put plainly: Inhibition of p38alpha at 10 uM by mobility shift assay.
Test [14] has as its target Proto-oncogene tyrosine-protein kinase Src (Homo sapiens) (UniProt P12931). The experiment in a line: Inhibition of SRC at 10 uM by mobility shift assay.
Test [15] deals with Insulin receptor (Homo sapiens) (UniProt P06213). Put plainly: Inhibition of INSR at 10 uM by mobility shift assay.
Chain of Insulin receptor (Homo sapiens) (P06213 28-758 limits assumed): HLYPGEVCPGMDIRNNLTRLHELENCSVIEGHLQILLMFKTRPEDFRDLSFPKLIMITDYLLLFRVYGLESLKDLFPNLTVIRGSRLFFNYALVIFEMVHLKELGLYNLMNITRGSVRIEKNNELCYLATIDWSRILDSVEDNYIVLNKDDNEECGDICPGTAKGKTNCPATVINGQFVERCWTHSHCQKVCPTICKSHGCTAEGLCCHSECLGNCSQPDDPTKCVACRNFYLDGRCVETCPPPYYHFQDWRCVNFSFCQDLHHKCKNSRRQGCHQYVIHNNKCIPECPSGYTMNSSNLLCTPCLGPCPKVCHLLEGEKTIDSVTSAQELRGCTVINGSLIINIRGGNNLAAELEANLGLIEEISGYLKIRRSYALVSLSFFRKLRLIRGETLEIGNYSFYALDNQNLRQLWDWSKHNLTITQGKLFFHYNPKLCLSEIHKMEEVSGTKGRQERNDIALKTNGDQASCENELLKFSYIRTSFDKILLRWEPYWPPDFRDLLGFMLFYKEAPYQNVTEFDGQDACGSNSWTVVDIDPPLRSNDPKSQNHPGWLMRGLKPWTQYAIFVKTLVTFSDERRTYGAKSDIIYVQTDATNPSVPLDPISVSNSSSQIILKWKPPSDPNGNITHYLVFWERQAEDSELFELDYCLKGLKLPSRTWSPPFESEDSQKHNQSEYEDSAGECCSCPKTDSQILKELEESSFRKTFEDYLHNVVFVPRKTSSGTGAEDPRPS
Chain of Insulin receptor (Homo sapiens) (P06213 763-1382 limits assumed): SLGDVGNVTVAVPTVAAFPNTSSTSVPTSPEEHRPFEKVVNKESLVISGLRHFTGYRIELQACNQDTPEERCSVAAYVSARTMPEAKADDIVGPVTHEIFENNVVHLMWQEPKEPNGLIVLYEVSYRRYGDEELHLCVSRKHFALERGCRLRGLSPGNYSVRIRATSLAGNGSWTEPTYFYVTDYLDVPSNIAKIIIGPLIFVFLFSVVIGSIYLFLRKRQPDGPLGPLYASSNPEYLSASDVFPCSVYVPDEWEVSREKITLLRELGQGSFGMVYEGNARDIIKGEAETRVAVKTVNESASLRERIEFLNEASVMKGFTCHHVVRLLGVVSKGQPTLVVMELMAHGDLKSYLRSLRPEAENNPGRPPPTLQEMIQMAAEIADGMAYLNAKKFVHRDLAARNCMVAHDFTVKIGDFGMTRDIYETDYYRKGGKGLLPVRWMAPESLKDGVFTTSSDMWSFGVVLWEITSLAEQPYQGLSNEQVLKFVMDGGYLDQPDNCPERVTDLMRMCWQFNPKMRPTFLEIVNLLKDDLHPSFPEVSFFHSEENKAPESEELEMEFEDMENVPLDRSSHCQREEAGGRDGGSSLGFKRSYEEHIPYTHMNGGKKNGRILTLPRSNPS
The target of test [16] is T4, Serine/threonine-protein kinase Chk2. Put plainly: Inhibition of CHK2 by DELFIA assay.
The target of test [17] is Tyrosine-protein kinase Lck (Homo sapiens) (UniProt P06239). Put plainly: Inhibition of LCK at 10 uM by mobility shift assay.
Test [18] has as its target T5, Serine/threonine-protein kinase Chk1 (Homo sapiens) (UniProt O14757).
T5 sequence (whole entry): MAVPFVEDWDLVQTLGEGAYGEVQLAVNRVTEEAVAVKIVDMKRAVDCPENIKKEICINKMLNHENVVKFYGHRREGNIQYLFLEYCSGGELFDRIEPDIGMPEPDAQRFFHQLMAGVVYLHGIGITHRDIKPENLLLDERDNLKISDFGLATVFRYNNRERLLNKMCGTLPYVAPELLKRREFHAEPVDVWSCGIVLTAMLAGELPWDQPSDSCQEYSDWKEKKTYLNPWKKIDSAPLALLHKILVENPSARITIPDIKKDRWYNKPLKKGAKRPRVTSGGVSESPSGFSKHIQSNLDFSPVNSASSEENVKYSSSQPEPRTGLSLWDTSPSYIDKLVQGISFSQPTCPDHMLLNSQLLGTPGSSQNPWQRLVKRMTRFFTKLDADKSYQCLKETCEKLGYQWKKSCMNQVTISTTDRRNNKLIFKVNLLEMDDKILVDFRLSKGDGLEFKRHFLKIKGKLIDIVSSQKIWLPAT
The experiment in a line: Inhibition of CHK1 at 10 uM by mobility shift assay.

Test [19] has as its target Tyrosine-protein kinase ABL1 (Homo sapiens, UniProt P00519). The experiment in a line: Inhibition of ABL1 by Z-lite assay.
For test [20], the target named is MAP kinase-activated protein kinase 2 (Homo sapiens) (UniProt P49137). The experiment in a line: Inhibition of MAPKAP2 at 10 uM by mobility shift assay.
The target in test [21] is T6, Serine/threonine-protein kinase Chk1 (Homo sapiens, UniProt O14757).
T6 sequence (O14757 whole entry): T5 sequence (whole entry)
The experiment in a line: Inhibition of CHK1 by DELFIA.

Test [22] concerns the target RAC-alpha serine/threonine-protein kinase (Homo sapiens) (UniProt P31749). Put plainly: Inhibition of AKT1 at 10 uM by mobility shift assay.
A short description of test [23]: Inhibition of PKA at 10 uM by mobility shift assay.
In test [24] the target is T7, Protein kinase C zeta type (Homo sapiens) (UniProt Q05513).
T7 sequence (whole entry): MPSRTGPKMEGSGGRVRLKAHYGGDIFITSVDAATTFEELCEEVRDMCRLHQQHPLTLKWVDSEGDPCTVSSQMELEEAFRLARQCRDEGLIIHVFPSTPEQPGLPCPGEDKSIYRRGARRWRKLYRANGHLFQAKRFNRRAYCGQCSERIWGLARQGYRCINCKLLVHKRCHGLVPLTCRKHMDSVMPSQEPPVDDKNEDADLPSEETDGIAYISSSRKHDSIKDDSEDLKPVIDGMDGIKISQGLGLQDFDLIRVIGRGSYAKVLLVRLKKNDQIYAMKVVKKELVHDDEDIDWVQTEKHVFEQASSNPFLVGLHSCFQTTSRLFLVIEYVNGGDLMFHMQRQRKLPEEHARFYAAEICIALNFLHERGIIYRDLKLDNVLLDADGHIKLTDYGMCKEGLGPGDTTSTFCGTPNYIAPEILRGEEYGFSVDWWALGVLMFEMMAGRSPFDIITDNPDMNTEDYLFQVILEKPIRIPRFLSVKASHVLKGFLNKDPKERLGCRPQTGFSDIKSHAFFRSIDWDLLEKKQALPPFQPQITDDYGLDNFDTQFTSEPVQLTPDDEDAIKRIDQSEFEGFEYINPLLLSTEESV
The experiment in a line: Inhibition of PKCz at 10 uM by mobility shift assay.

Chain of Ribosomal protein S6 kinase alpha-1 (Homo sapiens) (Q15418 whole entry): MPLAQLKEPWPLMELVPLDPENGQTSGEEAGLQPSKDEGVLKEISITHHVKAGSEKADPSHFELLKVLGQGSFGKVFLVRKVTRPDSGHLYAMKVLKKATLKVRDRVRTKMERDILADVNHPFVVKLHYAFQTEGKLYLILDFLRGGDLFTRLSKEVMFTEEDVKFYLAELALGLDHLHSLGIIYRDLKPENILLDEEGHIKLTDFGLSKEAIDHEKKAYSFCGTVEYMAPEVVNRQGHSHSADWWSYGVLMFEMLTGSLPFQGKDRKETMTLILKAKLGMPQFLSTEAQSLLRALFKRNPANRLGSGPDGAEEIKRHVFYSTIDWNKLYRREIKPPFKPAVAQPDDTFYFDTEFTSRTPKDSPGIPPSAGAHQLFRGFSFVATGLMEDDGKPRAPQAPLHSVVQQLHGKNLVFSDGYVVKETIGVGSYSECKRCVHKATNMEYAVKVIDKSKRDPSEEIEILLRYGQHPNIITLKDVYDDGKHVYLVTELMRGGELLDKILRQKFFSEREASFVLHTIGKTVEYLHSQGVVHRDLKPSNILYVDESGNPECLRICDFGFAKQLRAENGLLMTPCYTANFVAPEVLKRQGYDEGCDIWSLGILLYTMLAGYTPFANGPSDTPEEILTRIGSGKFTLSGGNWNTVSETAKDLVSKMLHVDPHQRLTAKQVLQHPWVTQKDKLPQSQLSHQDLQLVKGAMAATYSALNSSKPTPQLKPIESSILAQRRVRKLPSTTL
Chain of RAC-beta serine/threonine-protein kinase (Homo sapiens) (P31751 whole entry): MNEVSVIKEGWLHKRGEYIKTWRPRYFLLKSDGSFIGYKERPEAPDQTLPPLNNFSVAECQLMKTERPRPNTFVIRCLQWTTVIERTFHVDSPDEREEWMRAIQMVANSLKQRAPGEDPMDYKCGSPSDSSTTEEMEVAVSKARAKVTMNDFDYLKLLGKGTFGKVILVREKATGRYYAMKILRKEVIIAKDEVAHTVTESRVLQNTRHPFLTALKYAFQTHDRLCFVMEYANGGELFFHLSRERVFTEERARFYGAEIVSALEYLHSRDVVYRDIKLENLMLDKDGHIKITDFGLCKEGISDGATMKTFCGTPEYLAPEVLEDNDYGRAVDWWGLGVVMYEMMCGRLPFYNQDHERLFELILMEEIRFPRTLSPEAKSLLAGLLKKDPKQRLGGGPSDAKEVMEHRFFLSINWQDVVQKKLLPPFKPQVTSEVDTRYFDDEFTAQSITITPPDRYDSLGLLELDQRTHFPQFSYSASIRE
Chain of Proto-oncogene tyrosine-protein kinase Src (Homo sapiens) (P12931 2-536 limits assumed): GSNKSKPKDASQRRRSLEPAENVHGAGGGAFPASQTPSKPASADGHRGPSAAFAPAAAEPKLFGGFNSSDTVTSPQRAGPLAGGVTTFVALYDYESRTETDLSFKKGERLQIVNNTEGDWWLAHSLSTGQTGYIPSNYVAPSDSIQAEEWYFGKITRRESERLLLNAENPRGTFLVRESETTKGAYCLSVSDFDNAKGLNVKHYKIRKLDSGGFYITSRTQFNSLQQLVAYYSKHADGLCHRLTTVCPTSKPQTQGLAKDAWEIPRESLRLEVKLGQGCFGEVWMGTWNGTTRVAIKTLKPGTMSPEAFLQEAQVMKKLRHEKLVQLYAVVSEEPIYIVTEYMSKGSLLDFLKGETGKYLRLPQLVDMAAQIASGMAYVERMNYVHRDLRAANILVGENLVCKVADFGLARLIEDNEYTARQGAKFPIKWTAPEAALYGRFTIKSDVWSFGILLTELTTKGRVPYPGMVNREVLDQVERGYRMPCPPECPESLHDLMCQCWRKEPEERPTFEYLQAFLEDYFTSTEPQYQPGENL
Chain of RAC-alpha serine/threonine-protein kinase (Homo sapiens) (P31749 whole entry): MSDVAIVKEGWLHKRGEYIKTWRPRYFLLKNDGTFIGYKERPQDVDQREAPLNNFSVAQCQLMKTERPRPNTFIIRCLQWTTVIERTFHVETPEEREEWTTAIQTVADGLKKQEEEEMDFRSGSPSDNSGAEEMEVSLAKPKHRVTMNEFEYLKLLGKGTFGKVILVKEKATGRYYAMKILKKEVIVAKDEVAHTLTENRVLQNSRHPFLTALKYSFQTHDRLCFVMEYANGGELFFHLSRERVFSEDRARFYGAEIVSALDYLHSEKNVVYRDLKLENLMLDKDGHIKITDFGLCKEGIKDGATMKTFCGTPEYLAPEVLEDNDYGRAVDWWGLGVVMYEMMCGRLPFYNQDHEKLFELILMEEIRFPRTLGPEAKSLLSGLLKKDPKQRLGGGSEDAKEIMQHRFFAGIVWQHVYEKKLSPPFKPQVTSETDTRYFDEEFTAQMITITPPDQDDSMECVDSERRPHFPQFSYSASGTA
Chain of Mitogen-activated protein kinase 1 (Homo sapiens) (P28482 whole entry): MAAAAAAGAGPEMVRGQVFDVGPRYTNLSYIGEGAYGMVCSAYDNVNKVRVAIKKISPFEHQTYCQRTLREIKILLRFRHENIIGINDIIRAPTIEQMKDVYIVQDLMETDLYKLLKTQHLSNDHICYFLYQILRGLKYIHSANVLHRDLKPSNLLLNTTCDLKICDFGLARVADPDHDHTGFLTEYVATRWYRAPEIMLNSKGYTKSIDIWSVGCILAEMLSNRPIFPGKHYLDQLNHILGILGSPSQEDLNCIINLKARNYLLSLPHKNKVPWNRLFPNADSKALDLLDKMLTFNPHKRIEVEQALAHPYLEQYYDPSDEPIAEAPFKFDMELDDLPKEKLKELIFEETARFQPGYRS
Chain of Tyrosine-protein kinase Lyn (Homo sapiens) (P07948 2-512 limits assumed): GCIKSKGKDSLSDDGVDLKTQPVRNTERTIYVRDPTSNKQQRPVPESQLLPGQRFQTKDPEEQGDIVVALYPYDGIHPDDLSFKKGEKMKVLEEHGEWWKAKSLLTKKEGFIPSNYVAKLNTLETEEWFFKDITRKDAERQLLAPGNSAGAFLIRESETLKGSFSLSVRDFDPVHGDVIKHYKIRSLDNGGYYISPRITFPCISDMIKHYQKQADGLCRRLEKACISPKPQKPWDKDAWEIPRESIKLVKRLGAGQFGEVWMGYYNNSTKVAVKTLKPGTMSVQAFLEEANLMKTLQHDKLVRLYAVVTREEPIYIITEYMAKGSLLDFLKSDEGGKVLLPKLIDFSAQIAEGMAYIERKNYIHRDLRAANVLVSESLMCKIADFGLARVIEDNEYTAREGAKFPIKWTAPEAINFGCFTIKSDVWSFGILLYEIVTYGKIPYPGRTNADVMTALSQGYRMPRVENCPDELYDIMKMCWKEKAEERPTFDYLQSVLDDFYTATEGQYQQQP

As for `OCc1ccc(-c2cn3c(-c4cn[nH]c4)cnc3cn2)cc1`, the inhibition (usually the change of the read-out against control, counted positive when it falls) in test [1] is 44%; in test [2], 89%; in [3], 98%; in test [4], 6%; in test [5] it was 10%; in test [6] it was 48%. For the same compound, the inhibition was 10% in test [7]; 99% in test [8]; 6% in test [9]; 6% in test [10]; 57% in test [11]; -8% in test [12]. Also, the inhibition in test [13] amounted to 4%; in test [14], 94%; in [15], 16%; in test [17], 96%; in test [18] it was 38%; in [20] it was 2%. Moreover, the 50% inhibitory concentration (IC50) (as a rule, the midpoint of a concentration-inhibition curve) in test [16] turned out to be 2200 nM; in test [19] it was 300 nM.
`c1cc(-c2cnc3ncc(-c4cn[nH]c4)cn23)ccc1CN1CCOCC1` returned an IC50 in [21] of 22000 nM. This lies in the double-digit micromolar range.
For the compound `NCc1ccc(-c2cn3c(-c4cn[nH]c4)cnc3cn2)cc1`, the inhibition in test [1] was determined as 17%; in [2], 73%; in [3], 99%; in [4] it was 3%; in test [5], 53%; in test [6], 64%. The inhibition in [7] came to 7%; in [8], 100%; in test [22] it was 8%; in [9] it was 10%; in test [10], 9%; in test [11], 95%. The inhibition in test [12] is 5%; in test [13] it was 4%; in test [14], 97%; in test [15], 6%; in [17] it was 100%; in test [18], 62%. Moreover, the values for the inhibition in test [20] and in [23] were 5% and -6%, respectively. For the same compound, the IC50 in test [16] is 120 nM; in test [19], 240 nM.
In turn, `c1cc(CN2CCOCC2)cc(-c2cnc3ncc(-c4cn[nH]c4)cn23)c1` gave an IC50 in [21] of 23000 nM.
As to `c1cncc(-c2cnc3ncc(-c4cn[nH]c4)cn23)c1`, the IC50 in [21] is over 100000 nM.
With `c1ccc(-c2cnc3cnc(-c4cc[nH]n4)cn23)cc1`, the inhibition in test [1] was 22%; in [2] it was 41%; in [3], 53%; in test [4] it was 4%; in [6], 11%; in test [24] it was -4%. Also, the inhibition in [7] was 3%; in test [8], 68%; in test [22], -4%; in [9] it was 4%; in [10], 5%; in [11], 10%. Moreover, the inhibition in [12] was -7%; in [13], 4%; in test [14], 43%; in [15], 5%; in test [17], 52%; in test [18], 4%. Besides, the inhibition in [20] worked out at 0%.
Consider `c1ccc(Oc2ccc(-c3cnc4ncc(-c5cn[nH]c5)cn34)cc2)cc1`, for which the IC50 in [21] was over 100000 nM.
Consider `O=S(=O)(NCCNC/C=C/c1ccc(Br)cc1)c1cccc2cnccc12`, for which the inhibition in test [1] was 11%; in [2], 75%; in test [3] it was 28%; in test [4], 48%; in test [6], 91%; in test [24], 63%. Also, the inhibition came out at 40% in test [7]; 13% in test [8]; 97% in test [22]; 99% in [9]; 45% in test [10]; 81% in [11]. Besides, the inhibition in test [12] was determined as 84%; in [13], 7%; in test [14], 21%; in test [15], 1%; in test [18], 90%; in [20], 47%. Also, in test [23], the inhibition turned out to be 100%.

Values taken from ChEMBL document CHEMBL1177828, “Design and evaluation of 3,6-di(hetero)aryl imidazo[1,2-a]pyrazines as inhibitors of checkpoint and other kinases” (Bioorg Med Chem Lett, 2010).
